Entries after “also recorded” stand apart in the source; their conditions may differ.
Columns and labels:
C57Bl/6J mice = assay: Vasopressin infusion (240 ng/hr) during pregnancy, preeclampsia-like phenotypes; format: in vivo
Procedure: Animal Studies: Female C57Bl/6J mice were obtained from Jackson Laboratories between 8-12 weeks of age. Osmotic minipumps infusing vasopressin (240 ng/hr) or saline vehicle were inserted into the subcutaneous space via incision between the scapulae. Following three days of recovery, females were mated with male C57Bl/6J mice. Presence of a vaginal plug indicated gestational day 0.5. Blood pressure was tracked before mating and throughout gestation by tail-cuff plethysmography. On gestational day 18, females were sacrificed for necropsy. Pup weight was recorded. Dam kidney sections were generated and imaged by electron microscopy by the University of Iowa Department of Pathology. All studies were approved by the University of Iowa Animal Care and Use Committee (ACURF #1211239).

C57Bl/6J female mice [1] = assay: Vasopressin infusion during pregnancy, tail-cuff blood pressure; format: in vivo; settings: vasopressin 24 ng/hr s.c. compared to 2.4 ng/hr s.c., P=0.03
Procedure: Method: Wildtype C57Bl/6J female mice were chronically infused with varied doses of arginine vasopressin (Sigma-Aldrich), via subcutaneous osmotic minipumps (Alzet), for three days preceding mating, then through gestational day 16. Mice were first acclimated to the restraint devices used for recordings for one week (“week −3”) before data recordings began. Blood pressure was assessed daily for two weeks preceding minipump implantation, through gestational day 16. Blood pressure was measured using tail-cuff plethysmography (Visitech). On any given recording day, the mouse was restrained and lightly warmed throughout the (30 min) recording period. Thirty consecutive 1 min inflation/deflation cycles were performed and successful pressure determinations were averaged within recording period for each mouse. Data sets from individual days with fewer than 10 successful determinations were excluded from analyses. Daily blood pressure values were averaged within animal for each week for statistical comparisons.

C57Bl/6J female mice [2] = assay: Vasopressin infusion 0.24, 2.4 or 24 ng/hr during pregnancy, proteinuria and intrauterine growth restriction; format: in vivo; settings: for fetal masses: dams infused with 24 ng/hr compared to 2.4 ng/hr vasopressin; for urine protein content: pregnant mice, GD17-GD18, vasopressin 0.24, 2.4, 24 ng/hr
Procedure: Method: Eighteen female C57BL/6J mice were obtained from the Jackson Laboratories. Subcutaneous osmotic minipumps (Alzet) were implanted to deliver vasopressin at 0.24, 2.4, or 24 ng/hr (six mice each group). After three days, mice were mated with wildtype C57BL/6J male mice for one night (thereby defining gestational day zero). On GD16, mice were placed into single-mouse metabolic cages (Nalgene) to collect urine for two consecutive nights. On GD18, mice were sacrificed to quantify and collect fetuses and placentas. Urine protein was assessed by commercially-available BCA assay (Pierce).

[3] = system: 2°-branch mesenteric artery; assay: Mesenteric artery vascular reactivity (pressurized myography); format: cell-based, mice
Procedure: Mesenteric Artery Vascular Reactivity: Secondary branches of mesenteric artery were dissected and placed in chilled oxygenated (21% O2, 5% CO2, and 74% N2) Kreb's buffer. A segment (˜1 mm long) of artery was transferred to a vessel chamber (DMT), cannulated with glass micropipettes and secured with silk ligatures. The artery was slowly pressurized to 40 mmHg without flow. After 30 min equilibration, vessel viability was tested by constriction response to 100 mM KCl. Vascular responses to PE (10-9-10-5 mol/L), AVP (10-12-10-7 mol/L), and ET-1 (10-11-10-8 mol/L) were then assessed. The artery was then superfused with calcium-free Krebs buffer containing 10-5 mol/L sodium nitroprusside and 2 mmol/L EGTA to maximally dilate the vessel. Internal and external diameters were measured at 75 mm Hg. Wall thickness, media/lumen ratio and cross sectional area (CSA) were calculated as previously described by Neves, et al. (62).
(§1) Statistics: Data were analyzed by ANOVA with repeated measures as appropriate. Post-hoc analyses were performed using Bonferroni multiple-comparisons procedures. EC50 and maximum response calculations were performed by fitting individual dose-response data sets to a four-parameter logistic function (Hillslope method); y=min+([…])/(1+(x/EC50)^Hillslope). All mRNA fold changes were calculated using the Livak method (54). All analytical comparisons were performed using SigmaStat/SigmaPlot (Systat). All data are presented as mean±sem.

abdominal aorta = assay: Abdominal aortic ring vascular reactivity (organ bath); format: cell-based, mice; settings: contractile response
Procedure: Aortic Vascular Reactivity: Abdominal aortic rings were assessed for vascular reactivity as previously described (32). Briefly, mice were euthanized by overdose of pentobarbital (50 mg, i.p.), and the abdominal aorta was quickly removed and placed in Kreb's buffer containing (in mmol/L): 118.3 NaCl, 4.7 KCl, 1.2 MgSO4, 1.2 KH2PO4, 25 NaHCO3, 2.5 CaCl2 and 11 glucose. Vascular rings (4-5 mm in length) were suspended in oxygenated Kreb's buffer (95% O2/5% CO2) in organ baths at 37° C. and connected to a force transducer via steel hooks. Resting tension was adjusted to 0.5 grams over 45 minutes. Contractile responses were tested in response to AVP (10^−10-10^−6 mol/L), phenylephrine (PE, 10^−8-3×10^−5), endothelin-1 (ET-1, 10^−10-10^−7), prostaglandin F2α (PGF2α, 10^−7-10^−4), and angiotensin II (Ang II, 10^−10-10^−7). Following sub-maximal contraction with PGF2α (40-50% of max; 3×10^−6-6×10^−6), relaxation responses to acetylcholine (10^−8-3×10^−5) and sodium nitroprusside (10^−9-10^−5) were determined.
as §1

[4] = vasopressin 240 ng/hr sc infusion vs saline

## NC(=O)CC[C@@H]1NC(=O)[C@H](Cc2ccccc2)NC(=O)[C@H](Cc2ccc(O)cc2)NC(=O)[C@@H](N)CSSC[C@@H](C(=O)N2CCC[C@H]2C(=O)N[C@@H](CCCN=C(N)N)C(=O)NCC(N)=O)NC(=O)[C@H](CC(N)=O)NC1=O [Arginine vasopressin]
C57Bl/6J mice; [4]
  proteinuria: apparent proteinuria
  rate of pregnancy (fecundity): significantly reduced the rate of pregnancy; also recorded: significantly reduced fecundity
  renal cortex electron microscopy: pathognomic glomerular endotheliosis
C57Bl/6J mice; vasopressin 240 ng/hr sc infusion vs saline, tail-cuff
  blood pressure in pregnancy: robust increase in blood pressure; also recorded: appears to induce hypertension
C57Bl/6J mice; vasopressin 240 ng/hr sc infusion, gestational day 18
  fetal growth: substantial fetal growth restriction
C57Bl/6J female mice [1]
  blood pressure, third week of pregnancy (gestational days 14-16): increased blood pressure
C57Bl/6J female mice [1]; listed as AVP
  blood pressure, third week of pregnancy (gestational days 14-16): late-pregnancy increase in blood pressure
C57Bl/6J female mice [2]; 0.24 ng/hr infusion
  mice that became pregnant (of six): two
C57Bl/6J female mice [2]; 2.4 ng/hr infusion
  mice that became pregnant (of six): five
C57Bl/6J female mice [2]; 24 ng/hr infusion
  mice that became pregnant (of six): three
C57Bl/6J female mice [2]; 24 ng/hr vasopressin infusion group, gestational day 17
  preterm labor: one pregnant mouse exhibited preterm labor
C57Bl/6J female mice [2]; GD18, listed as Vasopressin
  fetal masses: dose-dependent intrauterine growth restriction
C57Bl/6J female mice [2]; GD18, listed as vasopressin
  fetal masses: significantly suppressed
C57Bl/6J female mice [2]; listed as Vasopressin
  urine protein content: dose-dependent proteinuria
C57Bl/6J female mice [2]; listed as vasopressin
  urine protein content: elevated in a dose-dependent manner
C57Bl/6J female mice [2]; vasopressin 0.24, 2.4, 24 ng/hr, GD18
  placental masses: indistinguishable across treatment groups
[3]; male Control mice
  Maximum Response: 52.5 ± 3.2%
[3]; male sRA mice
  Maximum Response: 17.3 ± 6.5 %
Abdominal aorta; male Control mice
  Maximum Response: 0.29 ± 0.03 g
Abdominal aorta; male sRA mice
  Maximum Response: 0.12 ± 0.01 g
